Patent US5250542A, “Peripherally selective piperidine carboxylate opioid antagonists” (Eli Lilly and Company, priority 1992, dated 1993)

target: T1, mu receptor (Rattus norvegicus, UniProt P33535); assay: opioid receptor binding assay, [3H] NAL (tritiated naloxone), mu receptor; design: species or system rat (Male Sprague Dawley), brain minus cerebellum; conditions: 20 min, 10 nM test compound; [3H] naloxone 0.5 nM; read-out: % displacement at 10 nM
T1 construct: rat whole brain minus cerebellum for mu was homogenized; from tissue; host or cells: brain of male Sprague Dawley rats, whole brain minus cerebellum, homogenate fraction
How it was run: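 Displacement of [3H]naloxone was measured on rat whole brain minus cerebellum membranes, preincubated 20 min and incubated 20 min at 37° C, with filtration separating bound ligand. Ki was derived from IC50 and ligand KD. Percent displacement was also recorded at 10 nM and 100 nM test compound.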

T1 sequence (P33535 whole entry): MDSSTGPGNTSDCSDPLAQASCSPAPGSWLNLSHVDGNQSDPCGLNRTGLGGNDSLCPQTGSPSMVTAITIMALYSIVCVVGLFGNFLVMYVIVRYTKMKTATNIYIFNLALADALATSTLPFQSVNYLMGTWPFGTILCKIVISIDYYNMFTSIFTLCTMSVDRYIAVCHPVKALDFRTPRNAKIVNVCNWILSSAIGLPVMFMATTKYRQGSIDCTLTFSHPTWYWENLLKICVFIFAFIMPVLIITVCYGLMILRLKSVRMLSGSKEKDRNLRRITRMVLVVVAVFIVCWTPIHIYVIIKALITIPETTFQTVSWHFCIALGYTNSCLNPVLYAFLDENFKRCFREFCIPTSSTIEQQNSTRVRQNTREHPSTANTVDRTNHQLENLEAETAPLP

Row | SMILES | inhibition at 0.01 µM
1 | COC1CCC(OC(=O)CNC(=O)C(Cc2ccccc2)CN2CC[C@@](C)(c3cccc(O)c3)[C@@H](C)C2)CC1 (relative stereo) [Example 92] | 85%
2 | C[C@H]1CN(CC(Cc2ccccc2)C(=O)NCC(=O)OCC(=O)NCc2ccccc2)CC[C@@]1(C)c1cccc(O)c1 (relative stereo) [Example 93] | 81%
3 | CC(=O)OC(C)OC(=O)CNC(=O)C(Cc1ccccc1)CN1CC[C@@](C)(c2cccc(O)c2)[C@@H](C)C1 (relative stereo) [Example 94] | 76%
4 | Cc1oc(=O)oc1COC(=O)CNC(=O)C(Cc1ccccc1)CN1CC[C@@](C)(c2cccc(O)c2)[C@@H](C)C1 (relative stereo) [Example 95] | 79%
5 | CCOC(=O)C(Cc1ccccc1)CN1CC[C@@](C)(c2cccc(OC)c2)[C@@H](C)C1 (single isomer, unassigned) [Example 78B] | 0%
6 | COc1cccc([C@]2(C)CCN(CC(Cc3ccccc3)C(=O)O)C[C@@H]2C)c1 (single isomer, unassigned) [Example 79] | 0%
7 | CNC(=O)C(Cc1ccccc1)CN1CC[C@@](C)(c2cccc(OC)c2)[C@@H](C)C1 (single isomer, unassigned) [Example 80] | 0%
8 | CCOC(=O)CNC(=O)C(Cc1ccccc1)CN1CC[C@@](C)(c2cccc(OC)c2)[C@@H](C)C1 (single isomer, unassigned) [Example 81] | 21%
9 | CNC(=O)CNC(=O)C(Cc1ccccc1)CN1CC[C@@](C)(c2cccc(OC)c2)[C@@H](C)C1 (single isomer, unassigned) [Example 82] | 31%
10 | CCNC(=O)CNC(=O)C(Cc1ccccc1)CN1CC[C@@](C)(c2cccc(OC)c2)[C@@H](C)C1 (single isomer, unassigned) [Example 83] | 52%

same assay, conditions: 20 min, 100 nM test compound; [3H] naloxone 0.5 nM; read-out: % displacement at 100 nM

Row | SMILES | inhibition at 0.1 µM
11 | C[C@H]1CN(CC(Cc2ccccc2)C(=O)NCC(=O)OCC(=O)NCc2ccccc2)CC[C@@]1(C)c1cccc(O)c1 (relative stereo) [Example 93] | 95%
12 | CC(=O)OC(C)OC(=O)CNC(=O)C(Cc1ccccc1)CN1CC[C@@](C)(c2cccc(O)c2)[C@@H](C)C1 (relative stereo) [Example 94] | 95%
13 | CCOC(=O)C(Cc1ccccc1)CN1CC[C@@](C)(c2cccc(OC)c2)[C@@H](C)C1 (single isomer, unassigned) [Example 78B] | 2%
14 | COc1cccc([C@]2(C)CCN(CC(Cc3ccccc3)C(=O)O)C[C@@H]2C)c1 (single isomer, unassigned) [Example 79] | 15%
15 | CNC(=O)C(Cc1ccccc1)CN1CC[C@@](C)(c2cccc(OC)c2)[C@@H](C)C1 (single isomer, unassigned) [Example 80] | 37%
16 | CCOC(=O)CNC(=O)C(Cc1ccccc1)CN1CC[C@@](C)(c2cccc(OC)c2)[C@@H](C)C1 (single isomer, unassigned) [Example 81] | 55%
17 | CNC(=O)CNC(=O)C(Cc1ccccc1)CN1CC[C@@](C)(c2cccc(OC)c2)[C@@H](C)C1 (single isomer, unassigned) [Example 82] | 73%
18 | CCNC(=O)CNC(=O)C(Cc1ccccc1)CN1CC[C@@](C)(c2cccc(OC)c2)[C@@H](C)C1 (single isomer, unassigned) [Example 83] | 83%

same assay, conditions: 20 min, read-out: % displacement at 100 nM

Row | SMILES | inhibition at 0.1 µM
19 | COC1CCC(OC(=O)CNC(=O)C(Cc2ccccc2)CN2CC[C@@](C)(c3cccc(O)c3)[C@@H](C)C2)CC1 (relative stereo) [Example 92] | 97%
20 | Cc1oc(=O)oc1COC(=O)CNC(=O)C(Cc1ccccc1)CN1CC[C@@](C)(c2cccc(O)c2)[C@@H](C)C1 (relative stereo) [Example 95] | 94%

target: T2, peripheral opioid receptors (Mus musculus, UniProt P42866); assay: precipitated diarrhea in morphine-maintained mice (peripheral opioid activity) and comparison with the writhing test; type: in vivo; conditions: higher ratio = greater relative antagonism of peripheral opioid receptors
T2 construct: Mice maintained (6 mice/cage) on 0.01M saccharin water with 1 g/1 morphine sulfate; from tissue; host or cells: living morphine-maintained mice (in vivo test; endogenous receptor)
How it was run: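 Morphine-dependent mice (1 g/l morphine sulfate in drinking water ≥10 days, withdrawn 45 min before dosing) received antagonist subcutaneously or orally, 5 mice/dose. Diarrhea (and jumping) were scored over 30 min and doses lowered to find the diarrhea threshold. Peripheral selectivity was taken as writhing AD50 divided by diarrhea ED50.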

T2 sequence (P42866 whole entry): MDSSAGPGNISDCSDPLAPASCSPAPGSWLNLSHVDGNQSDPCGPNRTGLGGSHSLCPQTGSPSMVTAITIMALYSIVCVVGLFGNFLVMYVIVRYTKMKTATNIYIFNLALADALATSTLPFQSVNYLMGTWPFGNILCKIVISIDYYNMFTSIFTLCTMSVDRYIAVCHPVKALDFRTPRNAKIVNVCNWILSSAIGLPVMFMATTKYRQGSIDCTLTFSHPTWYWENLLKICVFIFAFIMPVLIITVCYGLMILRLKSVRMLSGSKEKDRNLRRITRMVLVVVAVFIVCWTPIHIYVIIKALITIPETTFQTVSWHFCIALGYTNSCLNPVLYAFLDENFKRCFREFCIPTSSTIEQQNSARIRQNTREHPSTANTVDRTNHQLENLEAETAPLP

Row | SMILES | Ratio (AD50 mouse writhing test / ED50 mouse diarrhea test)
21 | COC1CCC(OC(=O)CNC(=O)C(Cc2ccccc2)CN2CC[C@@](C)(c3cccc(O)c3)[C@@H](C)C2)CC1 (relative stereo) [Example 92] | 1540
22 | C[C@H]1CN(CC(Cc2ccccc2)C(=O)NCC(=O)OCC(=O)NCc2ccccc2)CC[C@@]1(C)c1cccc(O)c1 (relative stereo) [Example 93] | 3625
23 | CC(=O)OC(C)OC(=O)CNC(=O)C(Cc1ccccc1)CN1CC[C@@](C)(c2cccc(O)c2)[C@@H](C)C1 (relative stereo) [Example 94] | 2222
24 | Cc1oc(=O)oc1COC(=O)CNC(=O)C(Cc1ccccc1)CN1CC[C@@](C)(c2cccc(O)c2)[C@@H](C)C1 (relative stereo) [Example 95] | 14
25 | CCOC(=O)C(Cc1ccccc1)CN1CC[C@@](C)(c2cccc(OC)c2)[C@@H](C)C1 (single isomer, unassigned) [Example 78B] | 29
26 | COc1cccc([C@]2(C)CCN(CC(Cc3ccccc3)C(=O)O)C[C@@H]2C)c1 (single isomer, unassigned) [Example 79] | 13
27 | CNC(=O)C(Cc1ccccc1)CN1CC[C@@](C)(c2cccc(OC)c2)[C@@H](C)C1 (single isomer, unassigned) [Example 80] | 24
28 | CCOC(=O)CNC(=O)C(Cc1ccccc1)CN1CC[C@@](C)(c2cccc(OC)c2)[C@@H](C)C1 (single isomer, unassigned) [Example 81] | 4
29 | CNC(=O)CNC(=O)C(Cc1ccccc1)CN1CC[C@@](C)(c2cccc(OC)c2)[C@@H](C)C1 (single isomer, unassigned) [Example 82] | 17
30 | CCNC(=O)CNC(=O)C(Cc1ccccc1)CN1CC[C@@](C)(c2cccc(OC)c2)[C@@H](C)C1 (single isomer, unassigned) [Example 83] | 2

same assay, conditions: mouse, 0.5 h, morphine-maintained mice; antagonist subcutaneous or oral; 30 min observation

Row | SMILES | ED50
31 | COC1CCC(OC(=O)CNC(=O)C(Cc2ccccc2)CN2CC[C@@](C)(c3cccc(O)c3)[C@@H](C)C2)CC1 (relative stereo) [Example 92] | 0.005 mg/kg
32 | C[C@H]1CN(CC(Cc2ccccc2)C(=O)NCC(=O)OCC(=O)NCc2ccccc2)CC[C@@]1(C)c1cccc(O)c1 (relative stereo) [Example 93] | 0.008 mg/kg
33 | CC(=O)OC(C)OC(=O)CNC(=O)C(Cc1ccccc1)CN1CC[C@@](C)(c2cccc(O)c2)[C@@H](C)C1 (relative stereo) [Example 94] | 0.009 mg/kg
34 | Cc1oc(=O)oc1COC(=O)CNC(=O)C(Cc1ccccc1)CN1CC[C@@](C)(c2cccc(O)c2)[C@@H](C)C1 (relative stereo) [Example 95] | 0.19 mg/kg
35 | CCOC(=O)C(Cc1ccccc1)CN1CC[C@@](C)(c2cccc(OC)c2)[C@@H](C)C1 (single isomer, unassigned) [Example 78B] | 0.055 mg/kg
36 | COc1cccc([C@]2(C)CCN(CC(Cc3ccccc3)C(=O)O)C[C@@H]2C)c1 (single isomer, unassigned) [Example 79] | 0.13 mg/kg
37 | CNC(=O)C(Cc1ccccc1)CN1CC[C@@](C)(c2cccc(OC)c2)[C@@H](C)C1 (single isomer, unassigned) [Example 80] | 0.16 mg/kg
38 | CCOC(=O)CNC(=O)C(Cc1ccccc1)CN1CC[C@@](C)(c2cccc(OC)c2)[C@@H](C)C1 (single isomer, unassigned) [Example 81] | 3.28 mg/kg
39 | CNC(=O)CNC(=O)C(Cc1ccccc1)CN1CC[C@@](C)(c2cccc(OC)c2)[C@@H](C)C1 (single isomer, unassigned) [Example 82] | 0.055 mg/kg
40 | CCNC(=O)CNC(=O)C(Cc1ccccc1)CN1CC[C@@](C)(c2cccc(OC)c2)[C@@H](C)C1 (single isomer, unassigned) [Example 83] | 0.04 mg/kg

target: T3, opioid receptor (Mus musculus, UniProt P42866); assay: mouse writhing analgesis test: block of morphine-induced analgesia; type: in vivo, CF-1 male mice; design: unit not given here; conditions: dose of antagonist that reduced the inhibition of writhing produced by 1.25 mg/kg morphine sulfate to 50%; subcutaneous, 20 min before acetic acid
T3 construct: Five CF-1 male mice (Charles River, Portage, Mich.); from tissue; host or cells: living CF-1 male mice (in vivo test; endogenous receptor)
How it was run: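 Male CF-1 mice (~20 g, fasted overnight, n=5) dosed subcutaneously 20 min before i.p. 0.6% acetic acid; writhes counted for 10 min starting 5 min post-injection. Antagonism measured as blockade of morphine-induced inhibition of writhing, percent versus vehicle controls; ED50 defined as 50% writhing inhibition.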

T3 sequence (P42866 whole entry): as above

Row | SMILES | AD50
41 | COC1CCC(OC(=O)CNC(=O)C(Cc2ccccc2)CN2CC[C@@](C)(c3cccc(O)c3)[C@@H](C)C2)CC1 (relative stereo) [Example 92] | 7.7
42 | C[C@H]1CN(CC(Cc2ccccc2)C(=O)NCC(=O)OCC(=O)NCc2ccccc2)CC[C@@]1(C)c1cccc(O)c1 (relative stereo) [Example 93] | 29.0
43 | CC(=O)OC(C)OC(=O)CNC(=O)C(Cc1ccccc1)CN1CC[C@@](C)(c2cccc(O)c2)[C@@H](C)C1 (relative stereo) [Example 94] | 20
44 | Cc1oc(=O)oc1COC(=O)CNC(=O)C(Cc1ccccc1)CN1CC[C@@](C)(c2cccc(O)c2)[C@@H](C)C1 (relative stereo) [Example 95] | 2.7
45 | CCOC(=O)C(Cc1ccccc1)CN1CC[C@@](C)(c2cccc(OC)c2)[C@@H](C)C1 (single isomer, unassigned) [Example 78B] | 1.6
46 | COc1cccc([C@]2(C)CCN(CC(Cc3ccccc3)C(=O)O)C[C@@H]2C)c1 (single isomer, unassigned) [Example 79] | 1.7
47 | CNC(=O)C(Cc1ccccc1)CN1CC[C@@](C)(c2cccc(OC)c2)[C@@H](C)C1 (single isomer, unassigned) [Example 80] | 3.9
48 | CCOC(=O)CNC(=O)C(Cc1ccccc1)CN1CC[C@@](C)(c2cccc(OC)c2)[C@@H](C)C1 (single isomer, unassigned) [Example 81] | 13.2
49 | CNC(=O)CNC(=O)C(Cc1ccccc1)CN1CC[C@@](C)(c2cccc(OC)c2)[C@@H](C)C1 (single isomer, unassigned) [Example 82] | .95
50 | CCNC(=O)CNC(=O)C(Cc1ccccc1)CN1CC[C@@](C)(c2cccc(OC)c2)[C@@H](C)C1 (single isomer, unassigned) [Example 83] | 0.71
